In patent publication EP2230235A1, “Botryosphaerones, novel depsidones and their use as medicaments” (Leibniz-Institut für Naturstoff-Forschung und …, priority 2009, dated 2010):
≈ marks a conversion by molar mass, not a printed value. Where two headings read alike, the source gives them in different places.

What was measured:
Type in all cases: cell-based
[1] = test system: K-562; assay: Antiproliferative assay (CellTiter-Blue); settings: Homo sapiens, K562; read-out: Gl50 (K-562)
Procedure: (§1) Antiproliferative and Cytotoxic Assays: Cells and culture conditions. Cells of HUVEC (ATCC CRL-1730), K-562 (DSM ACC 10) and HeLa (DSM ACC 57) were cultured in DMEM (CAMBREX 12-[…]), RPMI 1640 (CAMBREX 12-[…]) and RPMI 1640 (CAMBREX 12-[…]) respectively. All cells were grown in the appropriate cell culture medium supplemented with 10 mL L^-1 ultraglutamine 1 (Cambrex 17-[…]/U1), 500 μ[…] gentamicin sulfate (CAMBREX 17-518Z), and 10 % heat inactivated fetal bovine serum (PAA A15-144) at 37 °C in high density polyethylene flasks (NUNC 156340). Antiproliferative assay. The test substances were dissolved in DMSO before being diluted in DMEM. The adherent cells were harvested at the logarithmic growth phase after soft trypsinization, using 0.25 % trypsin in PBS containing 0.02 % EDTA (Biochrom KG L 2163). For each experiment, approximately 10.000 cells were seeded with 0.1 mL culture medium per well of the 96-well microplates (NUNC 167008). Method of evaluation. For estimating the influence of chemical compounds on cell proliferation of K-562, the numbers of viable cells present in multiwell plates were determined via CellTiter-Blue® assay. The indicator dye resazurin was used to measure the metabolic capacity of cells as an indicator of cell viability. […] The optical densities were measured at 660 nm in SUNRISE microplate reader (TECAN). […]

[2] = test system: HUVEC; assay: Antiproliferative assay (methylene blue staining); settings: Homo sapiens
Procedure: as §1

[3] = test system: Fusarium oxysporum; assay: MIC determination, agar diffusion method; settings: 24 h
Description: Antifungal activities were studied qualitatively by agar diffusion tests according to the literature (Stuttgart, D. A. V., European Pharmacopoeia, 3rd ed.1997, 13, 118; Afonin, S.; Glaser, R. W.; Berditchevskaia, M.; Wadhwani, P.; Guhrs, K. H.; Mollmann, U.; Perner, A.; Ulrich, A. S. Chembiochem. 2003, 4, (11), 1151-1163; Standards, N. C. f. C. L., Reference Method for Broth Dilution Susceptibility Testing of Filamentous Fungi; Approved Standard. M38-A, Wayne, PA, USA, NCCls 2002, 22) and quantitatively by determination of minimal inhibitory concentration (MIC) according to the NCCLS guidelines using the broth microdilution method. Fifty microliters of the test compound solution in methanol were serially diluted by factor two with the culture medium (RPMI 1640 with L-glutamine, MOPS and without sodium bicarbonate, LONZA Verviers SPRL, Belgium). Then, the wells were inoculated with 50 µL of the test organism to give a final concentration of 6x10^3 CFU mL^-1. After incubation of the microtiter plates at 37°C (Aspergillus terreus) for 24 h, the MIC-values were read with a Nepheloscan Ascent 1.4 automatic plate reader (Lab systems, Vantaa, Finnland) as the lowest dilution of compound allowing no visible growth. The MIC for Fusarium oxysporum and Bacillus subtilis was determined by the agar diffusion method. […]

[4] = test system: Bacillus subtilis; assay: MIC determination / antibacterial activity, agar diffusion method; settings: for antimicrobial efficacy / antibacterial activity: B. subtilis, result in words
Description: (§2) Antifungal activities were studied qualitatively by agar diffusion tests according to the literature (Stuttgart, D. A. V., European Pharmacopoeia, 3rd ed.1997, 13, 118; Afonin, S.; Glaser, R. W.; Berditchevskaia, M.; Wadhwani, P.; Guhrs, K. H.; Mollmann, U.; Perner, A.; Ulrich, A. S. Chembiochem. 2003, 4, (11), 1151-1163; Standards, N. C. f. C. L., Reference Method for Broth Dilution Susceptibility Testing of Filamentous Fungi; Approved Standard. M38-A, Wayne, PA, USA, NCCls 2002, 22) and quantitatively by determination of minimal inhibitory concentration (MIC) according to the NCCLS guidelines using the broth microdilution method. Fifty microliters of the test compound solution in methanol were serially diluted by factor two with the culture medium (RPMI 1640 with L-glutamine, MOPS and without sodium bicarbonate, LONZA Verviers SPRL, Belgium). Then, the wells were inoculated with 50 µL of the test organism to give a final concentration of 6x10^3 CFU mL^-1. After incubation of the microtiter plates at 37°C (Aspergillus terreus) for 24 h, the MIC-values were read with a Nepheloscan Ascent 1.4 automatic plate reader (Lab systems, Vantaa, Finnland) as the lowest dilution of compound allowing no visible growth. The MIC for Fusarium oxysporum and Bacillus subtilis was determined by the agar diffusion method. Fifty microliters of each of the 12 serial twofold dilutions were filled in agar (malt extract agar from Roth, Karlsruhe, Germany; seeded with 0.5 mL of a pretested mycelial solution) holes of 9 mm in diameter. After incubation for 24 h the MIC was read as the lowest concentration giving an inhibition zone.

[5] = test system: HeLa; assay: Cytotoxic assay (methylene blue staining); settings: Homo sapiens, 72 hours incubation, read-out: Cytotoxicity CC50 (HeLa)
Procedure: Antiproliferative and Cytotoxic Assays: Cells and culture conditions. Cells of HUVEC (ATCC CRL-1730), K-562 (DSM ACC 10) and HeLa (DSM ACC 57) were cultured in DMEM (CAMBREX 12-614F), RPMI 1640 (CAMBREX 12-167F) and RPMI 1640 (CAMBREX 12-167F) respectively. All cells were grown in the appropriate cell culture medium supplemented with 10 mL L^-1 ultraglutamine 1 (Cambrex 17-605E/U1), 500 µL L^-1 gentamicin sulfate (CAMBREX 17-518Z), and 10 % heat inactivated fetal bovine serum (PAA A15-144) at 37 °C in high density polyethylene flasks (NUNC 156340).
Cytotoxic assay. For the cytotoxic assay, HeLa cells were pre-incubated for 48 hours without the test substances. The dilutions of the compounds were carried out carefully on the subconfluent monolayers of HeLa cells after the pre-incubation time. Cells were incubated with dilutions of the test substances for 72 hours at 37 °C in a humidified atmosphere and 5 % CO2.
Method of evaluation. For estimating the influence of chemical compounds on cell proliferation of K-562, the numbers of viable cells present in multiwell plates were determined via CellTiter-Blue® assay. The indicator dye resazurin was used to measure the metabolic capacity of cells as an indicator of cell viability. […] The optical densities were measured at 660 nm in SUNRISE microplate reader (TECAN). […]

[6] = test system: Aspergillus terreus; assay: MIC determination, broth microdilution method (NCCLS guidelines); settings: A. terreus; for antimicrobial efficacy: result in words; for MIC: broth microdilution, 37°C, 24 h
Description: as §2

[7] = Aspergillus terreus, read-out: MIC

Compound | GI50 [1] | GI50 [2] | MIC [3] | antimicrobial efficacy / antibacterial activity [4] | CC50 [5] | antimicrobial efficacy [6] | MIC [6, 7] | MIC ([4]; Bacillus subtilis, 24 h) | antibacterial activity ([4]; Bacillus subtilis, agar diffusion assays, 400 µg mL^-1) | MIC [6]
Cc1cc(O)cc2c1Oc1c(C=O)c(O)cc(C)c1C(=O)O2 [Compound 1, botryosphaerone A] | 840 nM | 1670 nM | 57.5 µg/mL (≈ 191 µM) | active | 97000 nM | active | 7.81 µg/mL (≈ 26 µM) | – | – | –
Cc1cc(O)c(C)c2c1Oc1c(C=O)c(O)cc(C)c1C(=O)O2 [Compound 2, Botryosphaerone B] | 3 nM | 70 nM | 75 µg/mL (≈ 239 µM) | active | 36400 nM | active | 15.6 µg/mL (≈ 49.7 µM) | – | – | –
Cc1cc(O)c(C)c2c1Oc1c(CO)c(O)cc(C)c1C(=O)O2 [Compound 3, botryosphaerone C] | – | – | – | antibacterial activity | – | – | – | 400 µg/mL (≈ 1260 µM) | antibacterial activity | –
C[C@@H]1[C@H](O)[C@@H](C)/C=C/C=C/CC/C=C/C=C/C=C/C=C/C(O[C@H]2O[C@H](C)[C@@H](O)[C@H](N)[C@@H]2O)CC2O[C@](O)(CC(O)C(O)CCC(O)CC(O)CC(O)CC(=O)O[C@H]1C)CC(O)C2C(=O)O (stereo partly shown) [nystatin, reference compound] | – | – | – | – | – | – | – | – | – | 12.50 µg/mL (≈ 13.5 µM)
botryosphaerone D [Compound 4] | – | – | – | antibacterial activity | – | – | – | – | – | –
